Patent US20080306001A1, “TRANSCRIPTIONAL MODULATION OF EXTRACELLULAR MATRIX (ECM) OF DERMAL FIBROBLASTS” (priority 2007, published 2008)

Key:
dermal fibroblasts [1] = test: Effect of interfering peptides on expression of ECM components, mRNA level (RT-PCR); type: cell-based, human; conditions: peptide 1 μM, 24 hours
Description: (§1) Human dermal fibroblasts were cultured in standard conditions (DMEM, 10% FCS, penicillin+streptomycin) and used in experiments after three passages in the laboratory. Cells were grown in 24 well plates, each treatment in triplicates. Cells were plated 16 hours prior treatments started. Peptides were added to the media, and media was changed every day during 7 day experiment. CPP concentration was 10 μM.
(§2) Total RNA from various human tissues was purified using RNAwiz (Ambion, USA) and subjected to subsequent DNase I treatment using the DNA-Free kit (Ambion). Total RNA from cancer cells was purified by using 4PCRmini kit (Ambion). First-strand cDNAs were synthesized with Superscript III reverse transcriptase (Invitrogen, USA) and 5 μg of total RNA using oligo d(T) priming in a final reaction volume of 50 μL
(§3) The cDNA was amplified by PCR using the 2,5U Hot-Firepol (Solis BioDyne, Estonia) and buffer Yellow (Naxo, Estonia). Reaction was performed in a 10 ul volume, using 0.5 ul cDNA as a template. Following primer sets were designed for this study:
(§4) The cells were treated with peptides (1 μM) 24 hours for the mRNA analysis and 72 hours for protein analysis. All experiments were done in triplicates. Variation between replicates was less that 15%.

human dermal fibroblasts [2] = test: Whole genome gene expression analysis (Affymetrix GeneChip Human Gene 1.0 ST Array); type: cell-based; conditions: peptide 10 μM, 24 hour
Description: Human dermal fibroblasts were cultured in standard conditions (DMEM, 10% FCS, penicillin+streptomycin) and used in experiments after three passages in the laboratory. Cells were grown in 60 mm plates, each treatment in duplicates. Cells were plated 16 hours prior treatments started. Peptides (10 μM) were added to the media, and cells were collected for RNA isolation 24 hour later.
Total RNA was purified by using 4PCRmini kit (Ambion). First-strand cDNAs were synthesized with Superscript III reverse transcriptase (Invitrogen, USA) and 5 μg of total RNA using oligo d(T) priming in a final reaction volume of 50 μL and used to generate fluorescently labeled probes for whole genome gene expression analysis. Whole genome gene expression analysis was conducted using Affymetrix GeneChip™ Human Gene 1.0 ST Array.

human dermal fibroblasts [3] = test: Effect of peptides on expression of growth factors, mRNA (RT-PCR); type: cell-based
Description: as §1, with “12” for “24”
as §2
as §3, with “Primer” for “Following primer”, “designed to specifically amplify the nucleic acid sequence for the corresponding growth factor” for “designed”, “study: […]” for “study:”

dermal fibroblasts [4] = test: Effect of interfering peptides on expression of ECM components, protein level (Western blot); type: cell-based, human
Description: as §1
(§5) Western blot using antibodies against fibronectin, thrombospondin, collagen I, collagen II, collagen 4, elastin, MMP1, MMP2, MMP7 and TIMP1 were performed using standard protocols. Cells were lysed in SDS loading buffer and separated on 5% SDS PAGE following transfer onto PVD membrane using semidry blotting. Antibodies were diluted 1:2000 and incubated for 2 hours followed by secondary antibody conjugated to alkaline phosphatase. Antibody binding was visualized using one step BCIP reagent (Pierce).
as §4

human dermal fibroblasts [5] = test: Effect of peptides on expression of growth factors, protein (Western blot); type: cell-based; conditions: peptide 10 μM
Description: as §1, with “12” for “24”
as §5, with “Western blots” for “Western blot”, “against growth factors” for “against fibronectin, thrombospondin, collagen I, collagen II, collagen 4, elastin, MMP1, MMP2, MMP7 and TIMP1”

[6] = system: human dermal fibroblast cell lines obtained from elderly patients; test: Effect of CPP mimicking peptides on synthesis of collagen I, collagen II and elastin in aged dermal fibroblasts (Western blot); type: cell-based; conditions: peptide 10 μM
Description: The ability to interfere interaction of TAF4, BRG1 and N-CoR1 with the active transcriptional complex and stimulate synthesis of collagen I, collagen II and elastin was tested on 2 human dermal fibroblast cell lines obtained from elderly patients. It has been shown that: • TAF4 suppression using siRNA stimulates expression of numerous genes in embryonic fibroblasts. (Mengus G, Fadloun A, Kobi D, Thibault C, Perletti L, Michel I, Davidson I. 2005. TAF4 inactivation in embryonic fibroblasts activates TGFbeta signaling and autocrine growth. EMBO J. 2005 Aug. 3; 24(15):2753-67.) • Brg1 inhibits numerous genes during development. (Inayoshi Y, Kaneoka H, Machida Y, Terajima M, Dohda T, Miyake K, Iijima S. 2005. Repression of GR-mediated expression of the tryptophan oxygenase gene by the SWI/SNF complex during liver development. J Biochem (Tokyo). 2005 October; 138(4):457-65) • N-CoR1 plays a crucial role in the repressive activity of diverse transcription factors (J. Frasor, J. M. Danes, C. C. Funk and B. S. Katzenellenbogen. 2005. Estrogen down-regulation of the corepressor N-CoR: Mechanism and implications for estrogen derepression of N-CoR-regulated genes. PNAS. vol. 102 no. 37, 13153-13157.) • SMAD7 functions as a component of negative feedback regulation that controls timining and extent of TGFbeta signaling (Zhu X, Topouzis S, Liang L F, Stotish RL. Myostatin signaling through Smad2, Smad3 and Smad4 is regulated by the inhibitory Smad7 by a negative feedback mechanism. Cytokine. 2004 Jun. 21; 26(6):262-72.) • TAF10 is one of the TATA box-binding protein-associated factors (TAFs), which constitute the TFIID complex.
as §1, §5

[7] = fibroblast 1 (first block of Table 1)
[8] = second block of Table 1 (also fibroblast 1)

RPKKRKVRRRGQLNSDHKSQLVEKVRLKIGCGIQL [SMAD7.1, CPP-mimicking peptide]
MMP1 mRNA, fold stimulation (dermal fibroblasts [1]): 3.6 fold | MMP7 mRNA, fold stimulation (dermal fibroblasts [1]): 2.9 fold | MMp2 mRNA, fold stimulation (dermal fibroblasts [1]): 1.9 fold | TIMP mRNA, fold stimulation (dermal fibroblasts [1]): 4.3 fold | collagen IV mRNA, fold stimulation (dermal fibroblasts [1]): 5.4 fold | collagenI mRNA, fold stimulation (dermal fibroblasts [1]): 7.9 fold | elastin mRNA, fold stimulation (dermal fibroblasts [1]): 7.7 fold | fibronectin mRNA, fold stimulation (dermal fibroblasts [1]): 8.7 fold | thrombospondin mRNA, fold stimulation (dermal fibroblasts [1]): 6.9 fold | Number of genes with altered expression: expression stimulated 2-5 fold (human dermal fibroblasts [2]): 986 | Number of genes with altered expression: expression stimulated more than 5 fold (human dermal fibroblasts [2]): 198 | Number of genes with altered expression: expression suppressed 2-5 fold (human dermal fibroblasts [2]): 1011 | Number of genes with altered expression: expression suppressed more than 5 fold (human dermal fibroblasts [2]): 124 | CTGF mRNA, fold stimulation of expression compared to control (human dermal fibroblasts [3]; peptide 10 μM): 27 fold | HGF mRNA, fold stimulation of expression compared to control (human dermal fibroblasts [3]; peptide 10 μM): 8 fold | IGF-1 mRNA, fold stimulation of expression compared to control (human dermal fibroblasts [3]; peptide 10 μM): 4 fold | VEGF mRNA, fold stimulation of expression compared to control (human dermal fibroblasts [3]; peptide 10 μM): 4 fold | b-FGF mRNA, fold stimulation of expression compared to control (human dermal fibroblasts [3]; peptide 10 μM): 2 fold | expression of CTGF (in words) (human dermal fibroblasts [3]; protein and mRNA): stimulate expression of CTGF significantly | expression of components of ECM (in words) (dermal fibroblasts [4]; dermal fibroblasts in vitro, protein and mRNA): stimulate expression of components of ECM | CollagenI protein, fold stimulation (dermal fibroblasts [4]; peptide 1 μM, 72 hours): 2.9 fold | Elastin protein, fold stimulation (dermal fibroblasts [4]; peptide 1 μM, 72 hours): 2.6 fold | Fibronectin protein, fold stimulation (dermal fibroblasts [4]; peptide 1 μM, 72 hours): 3.1 fold | MMP1 protein, fold stimulation (dermal fibroblasts [4]; peptide 1 μM, 72 hours): 1.9 fold | MMP2 protein, fold stimulation (dermal fibroblasts [4]; peptide 1 μM, 72 hours): 1.1 fold | MMP7 protein, fold stimulation (dermal fibroblasts [4]; peptide 1 μM, 72 hours): 1.9 fold | TIMP protein, fold stimulation (dermal fibroblasts [4]; peptide 1 μM, 72 hours): 1.3 fold | collagen IV protein, fold stimulation (dermal fibroblasts [4]; peptide 1 μM, 72 hours): 2.1 fold | thrombospondin protein, fold stimulation (dermal fibroblasts [4]; peptide 1 μM, 72 hours): 3.2 fold | CTGF protein, fold stimulation of expression compared to control (human dermal fibroblasts [5]): 15 fold | HGF protein, fold stimulation of expression compared to control (human dermal fibroblasts [5]): 1.7 fold | IGF-1 protein, fold stimulation of expression compared to control (human dermal fibroblasts [5]): 1 fold | VEGF protein, fold stimulation of expression compared to control (human dermal fibroblasts [5]): 1.3 fold | b-FGF protein, fold stimulation of expression compared to control (human dermal fibroblasts [5]): 1 fold

RPKKRKVRRRLATNSELVGTLTRSCKDETFLL (synethetic amino acid sequence) [TAF4.1, CPP-mimicking peptide]
collagen I, fold increase after 7 days [6, 7]: 5 fold | collagen II, fold increase after 7 days [6, 7]: 3 fold | elastin, fold increase after 7 days [6, 7]: 4 fold | collagen I, fold increase after 7 days [6, 8]: 2 fold | collagen II, fold increase after 7 days [6, 8]: 4 fold | elastin, fold increase after 7 days [6, 8]: 2 fold

RPKKRKVRRRMGLGKTIQTIALITYLMEHKRINGP [BRG1.1, CPP-mimicking peptide]
collagen I, fold increase after 7 days [6, 7]: 7 fold | collagen II, fold increase after 7 days [6, 7]: 2 fold | elastin, fold increase after 7 days [6, 7]: 3 fold | collagen I, fold increase after 7 days [6, 8]: 3 fold | collagen II, fold increase after 7 days [6, 8]: 5 fold | elastin, fold increase after 7 days [6, 8]: 6 fold
